From patent publication US20040014730A1, “Formulations and methods of reducing toxicity of anti-infective agents” (priority 2002, published 2004)

Columns and labels:
mice = conditions: mouse, in vivo, iv
humans = conditions: human, in vivo
[1] = Stability in acidic and basic aqueous media (proton NMR); format: physicochemical; conditions: for stability in aqueous solution: pH 1.5 to 9.0
Protocol: The stability of 2,2′-dithio-bis-ethane sulfonate at room temperature was determined at pH ranges of 1.5 to 9.0.
The following experiment was performed to determine the stability of 2,2′-dithio-bis-ethane sulfonate in acidic and basic aqueous media. In a typical experiment, 50 mg of 2,2′-dithio-bis-ethane sulfonate (as produced by using the above described method) was dissolved in one ml of water and the pH was adjusted to 1.5, 2.0, 3.0, 4.0, 5.0 and 6.0 by adding 1 N hydrochloric acid in water or the pH was adjusted to 8.0 and 9.0 by adding 1 N sodium hydroxide in water. The reaction mixture was stirred for 24 hours at room temperature, the water was removed at reduced pressure, dissolved in spectral grade D2O, and the proton NMR spectrum was recorded.
The stability of 2,2′-dithio-bis-ethane sulfonate at pH 1.5 was further studied by heating the reaction mixture to 100 degrees Celsius for 10 minutes.

dogs = conditions: dog, in vivo, iv
[2] = cited from earlier work

Q: For `O=S(=O)([O-])CCSSCCS(=O)(=O)[O-].[Na+].[Na+]` [Dimesna, disodium 2,2′-dithiobis ethane sulfonate], which “dose administered intravenously with no adverse effects” value (mice) is on record?
A: > 3750 mg/kg

Q: And the “dose administered with no adverse effects” value (humans)?
A: exceeding 25 g/m^2

Q: What about the “proton NMR spectrum after stirring in aqueous solution” value ([1]; 50 mg in one ml water, pH 1.5, 2.0, 3.0, 4.0, 5.0, 6.0, 8.0 and 9.0, 24 hours, room temperature) of the same molecule?
A: no additional peaks were observed

Q: And the “proton NMR spectrum after heating” value ([1]; pH 1.5, 100 degrees Celsius for 10 minutes)?
A: No change in the proton spectrum

Q: And the “stability in aqueous solution” value ([1]; room temperature, listed as 2,2′-Dithio-bis-ethane sulfonate)?
A: very stable

Q: And the “stability in aqueous solution” value ([1]; room temperature, listed as 2,2′-dithio-bis-ethane sulfonate)?
A: stable

Q: What about the “dose administered intravenously with no adverse effects” value (dogs) of the same molecule?
A: > 3750 mg/kg

Q: Which “accepted oral LD50” value [2] does the source give for `[Cl-].[Na+]` [common table salt] here?
A: 3750 mg/kg
